“Also recorded” adds a separate entry of the source.
Columns and labels:
[1] = test system: BV2 cells; assay: Proliferation activity of microglial cell BV2 (MTT and CCK8 methods); type: cell-based; conditions: Mus musculus
Description: We then intended to use ACT001 for treating neuromyelitis optica.

[2] = test system: IL-6 release by LPS-activated BV-2 cells; assay: IL-6 release/expression after LPS activation of BV-2 (ELISA); type: cell-based; conditions: for IL-6 expression in BV-2 cells: 1 μg/mL LPS
Method: (§1) BV2 cells were digested, counted and plated in a 24-well plate at 1 mL and 20,000 cells per well, and the cells were then incubated overnight in an incubator at 5% CO2 and 37° C. 1 μg/mL LPS was added into each well for 1 h of action, and then ACT001 at different concentrations was added. Five experimental groups were set, namely: (1) control group; (2) ACT001-2.5 μM group; (3) ACT001-5 μM group; (4) ACT001-10 μM group; and (5) ACT001-20 μM group. After 8 h of action, the drug action was completed, the supernatant was collected and centrifuged at 12,000 rpm for 20 min, and then ELISA was performed according to the kit instructions.
as §1, with “40,000” for “20,000”, “24” for “8”

[3] = test system: TNF-α release by LPS-activated BV-2 cells; assay: TNF-α release/expression after LPS activation of BV-2 (ELISA); type: cell-based; conditions: for TNF-α expression in BV-2 cells: 1 μg/mL LPS
Method: as §1, with “40,000” for “20,000”, “24” for “8”

[4] = test system: NO release by LPS-activated BV-2 cells; assay: NO release after LPS activation of BV-2; type: cell-based
Description: 5. FIG. 5 is a graph showing the effect of ACT001 on NO expression (*P<0.05, ** P<0.01, *** P<0.001).

[5] = test system: Lewis rat NMO disease models; assay: NMO animal model: NMO patient serum and complement injected intrathecally, behavioral scoring; type: in vivo; conditions: for Behavioral score: intragastric daily, ACT001 60 mg/kg, hormone 30 mg/kg
Method: Meanwhile, before establishing NMO animal models, firstly, the spinal intrathecal catheterization was performed on Lewis rats, wherein an outlet could be placed at the spinal cord and at the first lumbar vertebra of the rat by controlling the length (7 cm) of a PE10 soft tube. For the Lewis rats after spinal intrathecal catheterization, they had no difference in behavior from normal rats the next day after the operation. Successfully modeled rats were divided into three groups, and 10 μL of each of the serum and complement system of an NMO patient was injected into the soft tubes in the rats for which the intubation was successful, and the supplementation was performed every four days. The administration regimen was as follows: the model control group (6 animals) was intragastrically administered normal saline every day for 15 consecutive days; the hormone group (8 animals) was intragastrically administered the methylprednisolone […] for injection every day at a dose of 30 mg/kg for 15 consecutive days; and the ACT001 group (6 animals) was intragastrically administered the ACT001 solution every day at a dose of 60 mg/kg for 15 consecutive days. The animal state was observed daily, and behavioral scores were recorded based on animal symptoms.
10 μL of each of the serum and complement system of an NMO patient was injected into the soft tubes in the rats for which the spinal intrathecal catheterization was successful, and the supplementation was performed every four days, thus establishing the NMO animal models. Model animals were randomized into three groups, namely: the normal saline group, the hormone (methylprednisolone sodium succinate for injection) group and the ACT001 group, and the administration regimen is as follows:
Behavioral scoring was performed based on animal symptoms.
The scoring criteria were as follows: • 0 point: no clinical symptoms; • 1 point: decreased tail tension or mild gait clumsiness; • 2 points: no tail tension or moderate gait abnormality; weakness of both hind limbs and recovery after being turned over passively; • 3 points: paralysis of both hind limbs. no recovery after being turned over passively, but capable of moving after stimulation; • 4 points: paralysis of both hind limbs. paralysis or weakened muscle strength of the forelimbs with urinary and fecal incontinence; • 5 points: moribund state or dead.
Symptoms between two stages were measured as ±0.5.

[6] = LPS-activated BV-2, ACT001 10 μM, vs control group, fumarate
[7] = LPS-stimulated microglial cells, concentration not given, fumarate

SMILES | Behavioral score ([5]; day 0 of treatment) | Behavioral score ([5]; day 1 of treatment) | Behavioral score ([5]; day 2 of treatment) | Behavioral score ([5]; day 3 of treatment) | Behavioral score ([5]; day 4 of treatment) | Behavioral score ([5]; day 5 of treatment) | Behavioral score ([5]; day 6 of treatment) | Behavioral score ([5]; day 7 of treatment) | Behavioral score ([5]; day 8 of treatment) | Behavioral score ([5]; day 9 of treatment) | Behavioral score ([5]; day 10 of treatment) | Behavioral score ([5]; day 11 of treatment) | Behavioral score ([5]; day 12 of treatment) | Behavioral score ([5]; day 13 of treatment) | Behavioral score ([5]; day 14 of treatment) | other results
CC1=C2CC[C@@](C)(O)[C@@H]2[C@H]2OC(=O)[C@@H](CN(C)C)[C@@H]2CC1.O=C(O)/C=C/C(=O)O [ACT001, (3R,3aS,9R,9aS,9bS)-3-((dimethylamino)methyl)-9-hydroxy-6,9-dimethyl-3,3a,4,5,7,8,9,9a-octahydroazuleno[4,5-b]furan-2(9bH)-one fumarate] | 0.00 ± 0.00 points | 0.42 ± 0.20 points | 0.17 ± 0.26 points | 0.17 ± 0.26 points | 0.00 ± 0.00 points | 1.17 ± 0.68 points | 1.00 ± 0.45 points | 0.83 ± 0.68 points | 0.33 ± 0.26 points | 2.08 ± 0.86 points | 1.25 ± 0.61 points | 0.50 ± 0.00 points | 2.00 ± 0.32 points | 1.92 ± 0.38 points | 1.17 ± 0.26 points | IC50 ([1]; BV-2, MTT/CCK8, read-out: IC50, inhibition of proliferation of BV2 cells): 23.6 µM; IC90 ([1]; BV-2, read-out: IC90, in vitro activity inhibition against BV2 cells): 99.1 ± 10.2 µM; IL-6 expression in BV-2 cells ([2]; ACT001 20 μM, p<0.001 vs control): significantly reduced; IL-6 expression in BV-2 cells ([2]; all ACT001 groups (2.5, 5, 10, 20 μM), dose-dependent trend): reduce IL-6 expression; release/expression of IL-6 [2, 6]: remarkably reduce; also recorded: significantly reduced; release of IL-6 [2, 7]: significantly reduced; TNF-α expression in BV-2 cells ([3]; ACT001 2.5, 5 and 10 μM dose groups, dose-dependent trend (FIG. 4)): reduce TNF-α expression; TNF-α expression in BV-2 cells ([3]; all ACT001 dose groups (2.5-20 μM), p<0.001 vs control (text on FIG. 3)): significantly reduced; release/expression of TNF-α [3, 6]: remarkably reduce; also recorded: significantly reduced; release of TNF-α [3, 7]: significantly reduced; pathological release of microglial cells NO ([4]; ACT001 5 μM (FIG. 5)): significantly could reduce; release of NO ([4]; LPS-activated microglia, ACT001 10 μM): remarkably reduce; release of NO [4, 7]: significantly reduced; tolerance of animals during administration ([5]; ACT001 60 mg/kg intragastric daily, 15 days): well tolerated; disease symptoms / behavioral scores compared to the normal saline control group ([5]; ACT001 60 mg/kg intragastric daily, 15 days, fumarate, 60 mg/kg): significantly alleviated; also recorded: significantly reduce the behavioral scores; also recorded: significantly relieve clinical symptoms; effect compared to the hormone treatment group ([5]; ACT001 60 mg/kg vs methylprednisolone 30 mg/kg, intragastric, 15 days, fumarate): not weaker than that of hormone; also recorded: basically equivalent; Behavioral score ([5]; day 15 of treatment, fumarate): 2.00±0.32 points
C[C@H]1C[C@@H]2[C@H]([C@@H](O)C[C@@]3(C)[C@H]2CC[C@]3(O)C(=O)COC(=O)CCC(=O)O)[C@@]2(C)C=CC(=O)C=C12 [Hormone, methylprednisolone sodium succinate, reference compound] | 0.00 ± 0.00 points | 0.63 ± 0.64 points | 0.50 ± 0.38 points | 0.44 ± 0.32 points | 0.13 ± 0.23 points | 1.75 ± 0.46 points | 0.88 ± 0.23 points | 0.63 ± 0.35 points | 0.38 ± 0.23 points | 2.06 ± 0.42 points | 2.06 ± 0.42 points | 0.88 ± 0.35 points | 2.19 ± 0.26 points | 2.19 ± 0.59 points | 1.00 ± 0.38 points | Behavioral score (Table 3, major research results) ([5]; 20 Lewis rats, female, intragastrically once daily for 15 times): group was 2.0 ± 0.3. points; Behavioral score ([5]; day 15 of treatment): 2.31 ± 0.26 points; Behavioral score ([5]; day 15 of treatment, listed as hormone): 2.31±0.26 points
